Source: PubChem BioAssay (NCI)
“And” between values parts separate entries of the source, which are not always exact repeats. Equal entries are not always repeated.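 96-well plates; 48 h exposure; 5 concentrations. Endpoints by linear interpolation between flanking doses. Not reached: highest tested concentration assigned. GI50 = concentration required for 50% inhibition of growth. Definition used: TGI = concentration required for complete inhibition of growth.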

Assays:
Assay in all cases: NCI tumour cell line growth inhibition, 48 h
[1] = system: HCT-15 colon
[2] = system: CAKI-1 renal
[3] = system: A498 renal
[4] = system: HCC-2998 colon
[5] = system: SF-295 CNS
[6] = system: ACHN renal
[7] = system: HT29 colon
[8] = system: HCT-116 colon
[9] = system: NCI/ADR-RES ovarian
[10] = system: M14 melanoma

Row | SMILES | GI50 [1] | TGI [1] | GI50 [2] | TGI [2] | GI50 [3] | TGI [3] | GI50 [4] | TGI [4] | GI50 [5] | TGI [5] | GI50 [6] | TGI [6] | GI50 [7] | TGI [7] | GI50 [8] | TGI [8] | GI50 [9] | TGI [9] | GI50 [10] | TGI [10]
1 | CCCCCOc1ccc(/C=N/Nc2cc(C)nc3ccc(Cl)cc23)cc1 | 1.43 µM | 2.84 µM | 1.64 µM | 3.03 µM | 1.19 µM | 2.47 µM | 1.95 µM | 3.54 µM | 1.77 µM | 3.34 µM | 1.75 µM | 3.13 µM | 1.44 µM | 2.81 µM | 1.04 µM | 2.29 µM | 1.89 µM | 3.92 µM | 1.76 µM | 3.23 µM
2 | C[C@]12CC[C@H]3[C@@H](CCC4=CC(=O)CC[C@@]43C)[C@@H]1CC[C@@H]2c1csc(N)n1 | 4.2 µM | 19.1 µM | 1.41 µM | 13.4 µM | 2.51 µM | 12.4 µM | 5.08 µM | 19.6 µM | 1.27 µM | 4.2 µM | 6.4 µM | 40.6 µM | 4.41 µM | 18.3 µM | 3.15 µM | 15.3 µM | 2.54 µM | 22.4 µM | 5.16 µM | 21.4 µM
3 | O=C1CC(c2ccccc2)Oc2ccccc21 (centres undefined) | – | > 100 µM | – | > 100 µM | – | 94 µM | – | > 100 µM | – | > 100 µM | – | > 100 µM | – | 59.7 µM | – | > 100 µM | – | > 100 µM | – | > 100 µM
4 | O=C(Nc1cccc(-n2cc(-c3ccncc3)c(-c3cc(O)cc(Cl)c3)n2)c1)c1ccc(N2CCOCC2)c(C(F)(F)F)c1 | 0.559 µM | 11.3 µM | 1.1 µM | 6 µM | 19.4 µM | 73.2 µM | 1.82 µM | 7.95 µM | 0.614 µM | 2.78 µM | 1.84 µM | 29.3 µM | 3.03 µM | 11.3 µM | 1.96 µM | > 100 µM | 4.59 µM | > 100 µM | 0.774 µM | 2.74 µM
5 | O=C1NC(=N[C@@H](CO)c2ccccc2)S/C1=C\c1ccc2ncccc2c1 | 6.19 µM | > 25 µM | 3.06 µM | > 25 µM | 4.29 µM | > 21.9 µM | 11.2 µM | > 25 µM | 14.4 µM | > 25 µM | 3.97 µM | > 25 µM | 6.63 µM | > 25 µM | 5.22 µM | > 25 µM | > 25 µM | > 25 µM | 6.16 µM | > 25 µM
6 | COc1ccc(C(=O)c2cc(OC)c(OC)c(OC)c2OC)cc1O | 3.48 µM | > 100 µM | 2.21 µM | 6.28 µM | 6.31 µM | > 100 µM | 6.15 µM | 65.1 µM | 1.94 µM | 5.18 µM | 8.94 µM | > 100 µM | 3.8 µM | > 100 µM | 3.98 µM | > 100 µM | 1.97 µM | 7.09 µM | 3.1 µM | > 100 µM
7 | Nc1ncc(Cc2ccc3c(c2)OCO3)c(N)n1 | – | > 100 µM | – | > 100 µM | – | > 100 µM | – | > 100 µM | – | > 100 µM | – | > 100 µM | – | > 100 µM | – | > 100 µM | – | > 100 µM | – | > 100 µM
8 | Nc1nc2c(c3cnccc13)C(c1ccc(Cl)c(Cl)c1)Cc1cnccc1-2 (centres undefined) | 0.409 µM | 11.1 µM | 0.658 µM | 13.4 µM | 0.227 µM | 1.01 µM | 1.65 µM | 7.37 µM | 0.394 µM | 4.76 µM | 0.807 µM | 4.04 µM | 0.37 µM | 3.31 µM | 0.432 µM | 11.2 µM | 0.43 µM | 7.69 µM | 0.36 µM | 2.16 µM
9 | COC1N(C2CC(O)C(CO)O2)C(=O)NC(=O)C1(F)Br (centres undefined) | 26.3 µM | 50 µM and > 100 µM | 24.9 µM | 50 µM and > 100 µM | 0.821 µM | 50 µM and > 65 µM | 1.14 µM | 50 µM and 98 µM | 21.9 µM | 50 µM and > 100 µM | 23.9 µM | 50 µM and > 100 µM | 14.9 µM | 50 µM and > 100 µM | 12.6 µM | 50 µM and > 100 µM | – | > 100 µM | 38.4 µM | 50 µM and > 100 µM
10 | CC1(C)OC[C@@H]([C@@]2(CO[Si](c3ccccc3)(c3ccccc3)C(C)(C)C)CC=CC(=O)O2)O1 | 5.86 µM | 58.6 µM | 25.9 µM | > 100 µM | 17.1 µM | 34.2 µM | 13.7 µM | 28.9 µM | 5.43 µM | 25.9 µM | 11.4 µM | 36.6 µM | 7.97 µM | > 100 µM | 4.86 µM | > 100 µM | 5.64 µM | 35.1 µM | 8.52 µM | 60.5 µM
11 | CCN(C)c1nc(N(C)CC)c2nc(N(C)CC)nc(N(C)CC)c2n1 | – | > 100 µM | – | > 100 µM | – | > 100 µM | – | > 100 µM | – | > 100 µM | – | > 100 µM | – | > 100 µM | – | > 100 µM | – | > 100 µM | – | > 100 µM
12 | COCC([C@@H](O)C(O)C(=O)NCC[C@@H](C)c1nc(/C=C/CC2OC3(C[C@H](O)C2C)OC(C(C[C@H](O)C(C)[C@H](O)C(C)/C=C(C)/C(C)=C/C=C/C(C)=C/C#N)OC)[C@@H](OP(=O)(O)O)C3(C)C)co1)N(C)C (some centres undefined) | – | 0.000462 µM | – | 0.000325 µM | – | 0.00333 µM | – | 0.000325 µM | – | 0.000328 µM | – | 0.000394 µM | – | 0.000297 µM | – | 0.000315 µM | – | 0.00258 µM | – | 0.000323 µM
13 | N#CC1c2ccccc2C=CN1C(=O)CCCl (centres undefined) | 2.87 µM | 9.55 µM | 8.38 µM | 22.7 µM | 11.7 µM | 25.8 µM | 16.9 µM | 32 µM | 29.4 µM | > 87.5 µM | 1.73 µM | 3.22 µM | 11.1 µM | 26.2 µM | 3.59 µM | 11.3 µM | 23 µM | 66.3 µM | 13.6 µM | 27.6 µM
14 | Cc1nn(-c2ccc(Cl)cc2)c2ncnc(N/N=C/c3ccccc3O)c12 | 0.407 µM and 0.331 µM | > 100 µM | 0.331 µM and 0.625 µM | 3.03 µM and 8.82 µM | 12.3 µM and 3.23 µM | 70.1 µM and 23.5 µM | 0.464 µM and 0.742 µM | > 100 µM | 0.841 µM and 1.12 µM | 9.93 µM and 24.4 µM | 0.362 µM and 0.322 µM | 12 µM and 10.5 µM | 2.43 µM and 1.62 µM | > 100 µM | 0.373 µM and 0.701 µM | 20.7 µM and > 43.3 µM | 0.372 µM and 0.356 µM | 16.9 µM and 17.4 µM | 0.523 µM and 0.34 µM | 2.43 µM and 2.11 µM
